Reference: the NIST ThermoML archive (doi:10.1021/acs.jced.8b00975)

Experiment: xn = mol fraction of the nth substance listed
Conditions: Liquid, Vibrating tube method

C=C(C)C(=O)OCCN(C)C [2-(dimethylamino)ethyl methylpropenoate] + CCO
mass density [kg/m3]
Conditions | 100 kPa | 5000 kPa | 10000 kPa | 15000 kPa | 20000 kPa | 25000 kPa | 30000 kPa | 35000 kPa
293.15 K, x1 = 0.0298 | 802.7 | 807.13 | 811.22 | 815.04 | 818.66 | 822.14 | 825.55 | 828.95
293.15 K, x1 = 0.0598 | 814.88 | 819.12 | 823.12 | 826.9 | 830.51 | 834 | 837.41 | 840.78
293.15 K, x1 = 0.0999 | 829.26 | 833.46 | 837.4 | 841.12 | 844.67 | 848.1 | 851.44 | 854.75
293.15 K, x1 = 0.1997 | 856.9 | 861.05 | 864.9 | 868.5 | 871.93 | 875.24 | 878.49 | 881.75
293.15 K, x1 = 0.3001 | 876.95 | 880.93 | 884.66 | 888.19 | 891.58 | 894.86 | 898.09 | 901.32
293.15 K, x1 = 0.3966 | 891.39 | 895.28 | 898.93 | 902.38 | 905.7 | 908.93 | 912.15 | 915.39
293.15 K, x1 = 0.4472 | 897.49 | 901.33 | 904.98 | 908.47 | 911.83 | 915.1 | 918.3 | 921.47
293.15 K, x1 = 0.4982 | 902.96 | 906.87 | 910.51 | 913.95 | 917.24 | 920.43 | 923.58 | 926.74
293.15 K, x1 = 0.55 | 907.68 | 911.66 | 915.32 | 918.74 | 921.98 | 925.14 | 928.28 | 931.5
293.15 K, x1 = 0.5964 | 911.67 | 915.5 | 919.12 | 922.56 | 925.87 | 929.09 | 932.25 | 935.39
293.15 K, x1 = 0.6982 | 918.77 | 922.55 | 926.15 | 929.6 | 932.93 | 936.16 | 939.33 | 942.44
293.15 K, x1 = 0.801 | 924.6 | 928.44 | 932.04 | 935.46 | 938.75 | 941.94 | 945.09 | 948.24
293.15 K, x1 = 0.8977 | 929.03 | 932.82 | 936.35 | 939.69 | 942.92 | 946.09 | 949.28 | 952.57
293.15 K, x1 = 0.9283 | 930.22 | 934.07 | 937.67 | 941.06 | 944.32 | 947.48 | 950.62 | 953.79
293.15 K, x1 = 0.9578 | 931.42 | 935.21 | 938.78 | 942.2 | 945.49 | 948.71 | 951.88 | 955.05
303.15 K, x1 = 0.03 | 794.45 | 798.97 | 803.18 | 807.13 | 810.87 | 814.43 | 817.87 | 821.22
303.15 K, x1 = 0.0603 | 806.55 | 811.05 | 815.24 | 819.16 | 822.87 | 826.4 | 829.79 | 833.08
303.15 K, x1 = 0.1002 | 820.45 | 824.89 | 829.01 | 832.87 | 836.53 | 840.03 | 843.44 | 846.8
303.15 K, x1 = 0.2021 | 848.13 | 852.39 | 856.38 | 860.15 | 863.75 | 867.22 | 870.62 | 873.98
303.15 K, x1 = 0.3014 | 867.56 | 871.73 | 875.66 | 879.39 | 882.96 | 886.41 | 889.8 | 893.16
303.15 K, x1 = 0.4003 | 882.15 | 886.21 | 890.08 | 893.8 | 897.38 | 900.86 | 904.27 | 907.64
303.15 K, x1 = 0.4499 | 888.16 | 892.11 | 895.91 | 899.59 | 903.17 | 906.65 | 910.06 | 913.41
303.15 K, x1 = 0.5006 | 893.42 | 897.42 | 901.25 | 904.92 | 908.47 | 911.94 | 915.35 | 918.74
303.15 K, x1 = 0.5488 | 897.81 | 901.82 | 905.64 | 909.31 | 912.87 | 916.34 | 919.76 | 923.18
303.15 K, x1 = 0.5998 | 902.09 | 906.13 | 909.95 | 913.6 | 917.13 | 920.59 | 924.04 | 927.53
303.15 K, x1 = 0.703 | 909.18 | 913.16 | 916.96 | 920.63 | 924.18 | 927.67 | 931.11 | 934.54
303.15 K, x1 = 0.8012 | 914.76 | 918.73 | 922.51 | 926.15 | 929.69 | 933.18 | 936.65 | 940.15
303.15 K, x1 = 0.9025 | 919.51 | 923.46 | 927.24 | 930.9 | 934.45 | 937.94 | 941.4 | 944.86
303.15 K, x1 = 0.9288 | 920.51 | 924.41 | 928.15 | 931.75 | 935.26 | 938.73 | 942.19 | 945.69
303.15 K, x1 = 0.9594 | 921.58 | 925.48 | 929.24 | 932.89 | 936.45 | 939.94 | 943.39 | 946.82
313.15 K, x1 = 0.0301 | 785.54 | 790.39 | 794.86 | 799.04 | 802.99 | 806.8 | 810.55 | 814.3
313.15 K, x1 = 0.0604 | 797.46 | 802.1 | 806.49 | 810.66 | 814.64 | 818.45 | 822.15 | 825.75
313.15 K, x1 = 0.1009 | 811.29 | 815.85 | 820.14 | 824.2 | 828.09 | 831.85 | 835.51 | 839.13
313.15 K, x1 = 0.2013 | 838.49 | 842.83 | 846.98 | 850.95 | 854.76 | 858.45 | 862.02 | 865.49
313.15 K, x1 = 0.302 | 858.03 | 862.37 | 866.49 | 870.43 | 874.22 | 877.88 | 881.45 | 884.95
313.15 K, x1 = 0.401 | 872.35 | 876.61 | 880.69 | 884.61 | 888.4 | 892.06 | 895.62 | 899.08
313.15 K, x1 = 0.4507 | 878.39 | 882.61 | 886.65 | 890.55 | 894.31 | 897.94 | 901.47 | 904.89
313.15 K, x1 = 0.4984 | 883.4 | 887.63 | 891.71 | 895.63 | 899.4 | 903.03 | 906.52 | 909.87
313.15 K, x1 = 0.553 | 888.58 | 892.77 | 896.81 | 900.7 | 904.45 | 908.07 | 911.57 | 914.96
313.15 K, x1 = 0.6053 | 892.9 | 897.11 | 901.15 | 905.03 | 908.77 | 912.39 | 915.89 | 919.29
313.15 K, x1 = 0.7041 | 899.74 | 903.88 | 907.89 | 911.79 | 915.55 | 919.19 | 922.7 | 926.09
313.15 K, x1 = 0.8027 | 905.5 | 909.63 | 913.65 | 917.54 | 921.29 | 924.91 | 928.37 | 931.68
313.15 K, x1 = 0.9016 | 910.19 | 914.28 | 918.27 | 922.15 | 925.92 | 929.56 | 933.08 | 936.46
313.15 K, x1 = 0.9342 | 911.48 | 915.6 | 919.6 | 923.48 | 927.25 | 930.89 | 934.42 | 937.83
313.15 K, x1 = 0.9607 | 912.61 | 916.71 | 920.71 | 924.61 | 928.4 | 932.04 | 935.54 | 938.88
